Counter-ions that a name gives are not always drawn.

One may read the melting point as the temperature, or range, at which the solid turns liquid. In turn, `COc1ccc(-c2[nH]nc3c2C(=O)c2c(NC(=O)CN4CCCCC4)cccc2-3)cc1` [Example XXIX, 3-(4-methoxyphenyl)-5-(piperidinoacetamido)indeno[1,2-c]pyrazol-4-one] displayed a melting point of 291 °C.

`COc1ccc(-c2[nH]nc3c2C(=O)c2c(NC=O)cccc2-3)cc1` [Example XLVII, 3-(4-methoxyphenyl)-5-(formamido)indeno[1,2-c]pyrazol-4-one] yielded a melting point of 280 °C. Regarding `CNC(=O)Nc1cccc2c1C(=O)c1c-2n[nH]c1-c1ccc(OC)cc1` [Example LXV, 3-(4-methoxyphenyl)-5-((methylcarbamoyl)amino)indeno[1,2-c]pyrazol-4-one], the melting point was over 300 °C. To `COc1ccc(-c2[nH]nc3c2C(=O)c2c(NC(=O)NN4CCOCC4)cccc2-3)cc1` [Example LXVI, 3-(4-methoxyphenyl)-5-((morpholinocarbamoyl)amino)indeno[1,2-c]pyrazol-4-one] belongs over 300 °C; to `CC(=O)Nc1cccc2c1C(=O)c1c-2n[nH]c1-c1ccc(O)cc1` [Example XLVI, 3-(4-hydroxyphenyl)-5-(acetamido)indeno[1,2-c]pyrazol-4-one], over 300 °C; to `CC(C)(C)OC(=O)NCCCCC(=O)N1CCC(c2[nH]nc3c2C(=O)c2c(NC(=O)NN4CCOCC4)cccc2-3)CC1` (as salt: TFA) [Example CCLXXIX, 3-(1-(4-(t-butoxycarbonylamino)butylcarbonyl)piperidin-4-yl)-5-(morpholinocarbamoylamino)indeno[1,2-c]pyrazol-4-one], 98 °C. For the compound `NC1CCC(C(=O)N2CCC(c3[nH]nc4c3C(=O)c3c(NC(=O)NN5CCOCC5)cccc3-4)CC2)CC1` (stereo not shown) (as salt: TFA) [Example CCLXXXIII, 3-(1-(4-aminocyclohexylcarbonyl)piperidin-4-yl)-5-(morpholinocarbamoylamino)indeno[1,2-c]pyrazol-4-one], the melting point amounted to 202 °C.
